Data reported in ChEMBL document CHEMBL4425081, “Design and Development of Microsomal Prostaglandin E2 Synthase-1 Inhibitors: Challenges and Future Directions” (J Med Chem, 2016).

Experiments:
[1] = biological target: T1, Prostaglandin G/H synthase 1 (Ovis aries, UniProt P05979); assay: Inhibition of ovine COX-1 assessed as 12-HHT formation preincubated for 5 mins followed by addition of arachidonic acid as substrate measured after 5 mins by HPLC analysis
T1 sequence (P05979 whole entry): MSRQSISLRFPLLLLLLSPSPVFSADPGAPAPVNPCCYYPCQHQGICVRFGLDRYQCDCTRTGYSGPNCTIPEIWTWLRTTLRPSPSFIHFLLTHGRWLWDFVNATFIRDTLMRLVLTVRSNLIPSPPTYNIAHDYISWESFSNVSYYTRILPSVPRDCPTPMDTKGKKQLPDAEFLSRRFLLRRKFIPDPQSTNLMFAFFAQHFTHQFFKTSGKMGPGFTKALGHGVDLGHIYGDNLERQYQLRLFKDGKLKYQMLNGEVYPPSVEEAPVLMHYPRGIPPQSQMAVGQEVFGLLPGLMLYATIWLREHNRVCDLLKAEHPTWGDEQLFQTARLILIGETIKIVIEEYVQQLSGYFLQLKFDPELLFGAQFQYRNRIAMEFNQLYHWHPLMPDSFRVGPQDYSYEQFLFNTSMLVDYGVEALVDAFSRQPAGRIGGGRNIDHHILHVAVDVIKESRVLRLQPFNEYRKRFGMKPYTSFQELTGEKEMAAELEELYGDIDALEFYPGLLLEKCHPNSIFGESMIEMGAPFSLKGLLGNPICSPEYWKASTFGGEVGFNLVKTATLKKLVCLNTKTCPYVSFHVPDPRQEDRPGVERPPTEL

[2] = biological target: T2, Arachidonate 5-lipoxygenase-activating protein (Homo sapiens, UniProt P20292); assay: Antagonist activity at FLAP in human PMNC assessed as inhibition of A23187-induced LTB4 biosynthesis pre-incubated for 2 mins followed by addition of A23187 measured after 5 mins by radioimmunoassay
T2 sequence (P20292 whole entry): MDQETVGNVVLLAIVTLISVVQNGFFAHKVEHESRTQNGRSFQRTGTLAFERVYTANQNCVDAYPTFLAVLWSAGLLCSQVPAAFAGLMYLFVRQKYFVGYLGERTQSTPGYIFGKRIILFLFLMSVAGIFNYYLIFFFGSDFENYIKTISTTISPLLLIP

Prostaglandin E synthase [3] = biological target: T3, Prostaglandin E synthase (Homo sapiens, UniProt O14684); assay: Inhibition of mPGES-1 in human A549 cells assessed as PGE2[…] formation preincubated for 60 mins prior to IL-beta stimulation measured after 24 hrs by EIA; type: cell-based
T3 sequence (O14684 whole entry): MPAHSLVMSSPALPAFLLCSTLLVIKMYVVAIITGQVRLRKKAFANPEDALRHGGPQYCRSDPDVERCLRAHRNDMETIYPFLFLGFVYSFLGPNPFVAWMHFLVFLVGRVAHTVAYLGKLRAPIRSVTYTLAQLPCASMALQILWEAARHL

Prostaglandin E synthase [4] = biological target: T3, Prostaglandin E synthase; assay: Inhibition of human mPGES-1 expressed in CHO-K1 cells using PGH2 as substrate assessed as PGE2 formation preincubated for 20 mins followed by addition of substrate measured after 60 secs by HTRF assay; type: cell-based

Row | IC50 [1] [nM] | IC50 [2] [nM] | IC50 (Prostaglandin E synthase [3]) [nM] | IC50 (Prostaglandin E synthase [4]) [nM] | SMILES
1 | 8000 | 2.5 | – | – | CC(C)c1ccc2c(c1)c(SC(C)(C)C)c(CC(C)(C)C(=O)O)n2Cc1ccc(Cl)cc1
2 | – | – | 1.2 | 0.1 | Cn1c(Nc2cc(CNC(=O)C3(C(F)(F)F)CC3)ccc2Cl)nc2cc(C(=O)NCC3CC3)c(OCC(F)F)cc21
